Patent US7462600B2, “Macrolides” (Pfizer Inc, priority 2004, dated 2008)
In brackets after ≈: the same amount, converted by molar mass. Where two headings read alike, the source gives them in different places.

Columns and labels:
Type in all cases: cell-based
[1] = test system: Streptococcus pyogenes 1079; assay: MIC, microtiter broth dilution (NCCLS M100-S14), S. pyogenes 1079 (ermB)
Procedure, shortened: (§1)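 Steps: dissolve compound in DMSO to 40 mg/ml stock; dilute in broth across microtiter trays; inoculate strains; record MIC per NCCLS M100-S14.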

[2] = test system: Streptococcus pneumoniae 1016; assay: MIC, microtiter broth dilution (NCCLS M100-S14), S. pneumoniae 1016 (susceptible)
Procedure, shortened: as §1

[3] = test system: Streptococcus pneumoniae 1095; settings: microtiter broth dilution
Procedure, shortened: as §1

[4] = test system: Streptococcus pneumoniae 1175; settings: microtiter broth dilution
Procedure, shortened: as §1

[5] = test system: Haemophilus influenzae 1218; assay: MIC, microtiter broth dilution (NCCLS M100-S14), H. influenzae 1218 (susceptible)
Procedure, shortened: as §1

[6] = S. pneumoniae 1016 (susceptible)
[7] = H. influenzae 1218 (susceptible)

| SMILES | MIC S. pyogenes 1079 ([1]; Streptococcus pyogenes 1079) | MIC S. pneumo. 1016 ([2]; Streptococcus pneumoniae 1016) | MIC S. pneumo. 1095 ([3]; Streptococcus pneumoniae 1095) | MIC S. pneumo. 1175 ([4]; Streptococcus pneumoniae 1175) | MIC H. influenzae 1218 ([5]; Haemophilus influenzae 1218) | MIC S. pyogenes 1079 ([1]; S. pyogenes 1079 (ermB)) | MIC S. pneumo. 1016 [2, 6] | MIC S. pneumo. 1095 ([3]; S. pneumoniae 1095 (ermB)) | MIC S. pneumo. 1175 ([4]; S. pneumoniae 1175 (mefA)) | MIC H. influenzae 1218 [5, 7] |
| --- | --- | --- | --- | --- | --- | --- | --- | --- | --- | --- |
| CCC1OC(=O)C(C)C(=O)C(C)C(OC2OC(C)CC(N(C)C)C2O)C(C)(OC)CC(C)C(=O)C(C)C2N(C3CN(C(=O)c4ccc(-n5cccn5)cc4)C3)C(=O)OC12C (stereo not shown) [Example 2.13] | >64.00 µg/mL | <0.06 µg/mL | 2 µg/mL (≈ 2.39 µM) | 0.12 µg/mL (≈ 0.143 µM) | 8 µg/mL (≈ 9.55 µM) |  |  |  |  |  |
| CCC1OC(=O)C(C)C(=O)C(C)C(OC2OC(C)CC(N(C)C)C2O)C(C)(OC)CC(C)C(=O)C(C)C2N(CC3CCN(C(=O)c4cnc5ccccc5c4)C3)C(=O)OC12C (stereo not shown) [13.10] |  |  |  |  |  | >64.00 µg/mL | <0.06 µg/mL | >64.00 µg/mL | 0.25 µg/mL (≈ 0.294 µM) | 4 µg/mL (≈ 4.7 µM) |
| CCC1OC(=O)C(C)C(=O)C(C)C(OC2OC(C)CC(N(C)C)C2O)C(C)(OC)CC(C)C(=O)C(C)C2N(CC3CCCN3C(=O)c3ccc4nccnc4c3)C(=O)OC12C.O=CO (stereo not shown) [10.12] |  |  |  |  |  | 32 µg/mL | <0.06 µg/mL | <0.06 µg/mL | 0.12 µg/mL | 2 µg/mL |
| CCC1OC(=O)C(C)C(=O)C(C)C(OC2OC(C)CC(N(C)C)C2O)C(C)(OC)CC(C)C(=O)C(C)C2N(C3CN(C(C)c4ccncc4)C3)C(=O)OC12C (stereo not drawn) [Example 1.21, 1R-(pyridin-4-yl)ethyl] | 32 µg/mL (≈ 41.4 µM) | <0.06 µg/mL | <0.06 µg/mL | 0.5 µg/mL (≈ 0.647 µM) | 2 µg/mL (≈ 2.59 µM) |  |  |  |  |  |
| CCC1OC(=O)C(C)C(=O)C(C)C(OC2OC(C)CC(N(C)C)C2O)C(C)(OC)CC(C)C(=O)C(C)C2N(CC3CN(Cc4cccnc4)C3)C(=O)OC12C (stereo not shown) [4.04] | >64.00 µg/mL | <0.06 µg/mL | 16 µg/mL (≈ 20.7 µM) | 0.25 µg/mL (≈ 0.323 µM) | 0.5 µg/mL (≈ 0.647 µM) |  |  |  |  |  |
| CCC1OC(=O)C(C)C(=O)C(C)C(OC2OC(C)CC(N(C)C)C2O)C(C)(OC)CC(C)C(=O)C(C)C2N(CC3CN(Cc4cccc5cccnc45)C3)C(=O)OC12C.O=CO (stereo not shown) [4.36] | >64.00 µg/mL | <0.06 µg/mL | 0.25 µg/mL | <0.06 µg/mL | <0.06 µg/mL |  |  |  |  |  |
| CCC1OC(=O)C(C)C(=O)C(C)C(OC2OC(C)CC(N(C)C)C2O)C(C)(OC)CC(C)C(=O)C(C)C2N(CC3CCN(C(=O)c4cc5ccccn5n4)C3)C(=O)OC12C (stereo not shown) [11.16] |  |  |  |  |  | >64.00 µg/mL | <0.06 µg/mL | 8 µg/mL (≈ 9.52 µM) | 0.5 µg/mL (≈ 0.595 µM) | 8 µg/mL (≈ 9.52 µM) |
| CCC1OC(=O)C(C)C(=O)C(C)C(OC2OC(C)CC(N(C)C)C2O)C(C)(OC)CC(C)C(=O)C(C)C2N(C3CN(S(=O)(=O)c4cccc(Cl)c4)C3)C(=O)OC12C (stereo not shown) [Example 3.107, 3-descladinosyl-11,12-dideoxy-6-O-methyl-3-oxo-12,11-(oxycarbonyl-(1-(3-chlorobenzene-1-sulfonyl)-azetidin-3-yl)-imino)-erythromycin A] | 1 µg/mL (≈ 1.19 µM) | <0.063 µg/mL | <0.063 µg/mL | <0.063 µg/mL | 025 µg/mL (≈ 29.7 µM) |  |  |  |  |  |
| CC[C@H]1OC(=O)[C@H](C)C(=O)[C@H](C)[C@@H](O[C@@H]2O[C@H](C)C[C@H](N(C)C)[C@H]2O)[C@](C)(OC)C[C@@H](C)C(=O)[C@H](C)[C@H]2N(C3CN(Cc4ccnc5c(C#N)cccc45)C3)C(=O)O[C@]12C [Example 1.95, 3-descladinosyl-11,12-dideoxy-6-O-methyl-3-oxo-12,11-(oxycarbonyl-(1-(quinoline-8-carbonitrile-4-methyl)-azetidin-3-yl)-imino)-erythromycin A] | 1 µg/mL (≈ 1.2 µM) | <0.063 µg/mL | 1 µg/mL (≈ 1.2 µM) | <0.063 µg/mL | 2 µg/mL (≈ 2.4 µM) |  |  |  |  |  |
| CCC1OC(=O)C(C)C(=O)C(C)C(OC2OC(C)CC(N(C)C)C2O)C(C)(OC)CC(C)C(=O)C(C)C2N(CC3CCCN3C(=O)c3nc4cncnc4[nH]3)C(=O)OC12C (stereo not shown) [10.26] |  |  |  |  |  | >64.00 µg/mL | <0.06 µg/mL | <0.06 µg/mL | 1 µg/mL (≈ 1.19 µM) | 2 µg/mL (≈ 2.38 µM) |
| CCC1OC(=O)C(C)C(=O)C(C)C(OC2OC(C)CC(N(C)C)C2O)C(C)(OC)CC(C)C(=O)C(C)C2N(C3CN(Cc4c(Br)cnc5ncccc45)C3)C(=O)OC12C (stereo not shown) [Example 1.75, 3-descladinosyl-11,12-dideoxy-6-O-methyl-3-oxo-12,11-(oxycarbonyl-(1-(3-bromo-1,8-naphthyridine-4-methyl)-azetidin-3-yl)-imino)-erythromycin A] | <0.063 µg/mL | <0.063 µg/mL | <0.063 µg/mL | <0.063 µg/mL | 1 µg/mL (≈ 1.12 µM) |  |  |  |  |  |
| CCC1OC(=O)C(C)C(=O)C(C)C(OC2OC(C)CC(N(C)C)C2O)C(C)(OC)CC(C)C(=O)C(C)C2N(C3CN(S(=O)(=O)c4ccc(C)c5nccnc45)C3)C(=O)OC12C (stereo not shown) [Example 3.114, 3-descladinosyl-11,12-dideoxy-6-O-methyl-3-oxo-12,11-(oxycarbonyl-(1-(8-methylquinoxaline-5-sulfonyl)-azetidin-3-yl)-imino)-erythromycin A] | 1 µg/mL (≈ 1.14 µM) | <0.063 µg/mL | 0.125 µg/mL (≈ 0.143 µM) | <0.063 µg/mL | 0.25 µg/mL (≈ 0.286 µM) |  |  |  |  |  |
| CCC1OC(=O)C(C)C(=O)C(C)C(OC2OC(C)CC(N(C)C)C2O)C(C)(OC)CC(C)C(=O)C(C)C2N(C3CN(Cc4c(Cl)cnc5ncccc45)C3)C(=O)OC12C (stereo not shown) [Example 1.76, 3-descladinosyl-11,12-dideoxy-6-O-methyl-3-oxo-12,11-(oxycarbonyl-(1-(3-chloro-1,8-naphthyridine-4-methyl)-azetidin-3-yl)-imino)-erythromycin A] | 0.125 µg/mL (≈ 0.148 µM) | <0.063 µg/mL | <0.063 µg/mL | <0.063 µg/mL | 0.5 µg/mL (≈ 0.592 µM) |  |  |  |  |  |
| CC[C@H]1OC(=O)[C@H](C)[C@@H](OC(=O)N2CCCC2)[C@H](C)[C@@H](O[C@@H]2O[C@H](C)C[C@H](N(C)C)[C@H]2O)[C@](C)(OC)C[C@@H](C)C(=O)[C@H](C)[C@H]2N(CC3CN(Cc4c[nH]c5ncccc45)C3)C(=O)O[C@]12C [Example 5.10, 3-descladinosyl-11,12-dideoxy-6-O-methyl-12,11-(oxycarbonyl-(1-((1H-pyrrolo[2,3-b]pyridin-3-yl)-methyl)-(azetidin-3-yl)-methyl)-imino)-3-(pyrrolidine-1-carbonyl)-erythromycin A] | 2 µg/mL (≈ 2.2 µM) | <0.06 µg/mL | <0.06 µg/mL | <0.06 µg/mL | 1 µg/mL (≈ 1.1 µM) |  |  |  |  |  |
| CCC1OC(=O)C(C)C(=O)C(C)C(OC2OC(C)CC(N(C)C)C2O)C(C)(OC)CC(C)C(=O)C(C)C2N(CC3CCN(C(=O)c4cccc5cccnc45)C3)C(=O)OC12C (stereo not shown) [13.11] |  |  |  |  |  | >64.00 µg/mL | <0.06 µg/mL | 16 µg/mL (≈ 18.8 µM) | 4 µg/mL (≈ 4.7 µM) | 4 µg/mL (≈ 4.7 µM) |
| CC[C@H]1OC(=O)[C@H](C)C(=O)[C@H](C)[C@@H](O[C@@H]2O[C@H](C)C[C@H](N(C)C)[C@H]2O)[C@](C)(OC)C[C@@H](C)C(=O)[C@H](C)[C@H]2N(CC3(O)CN(S(=O)(=O)c4c(C)n[nH]c4C)C3)C(=O)O[C@]12C [7.15] |  |  |  |  |  | >64.00 µg/mL | <0.06 µg/mL | >64.00 µg/mL | 4 µg/mL (≈ 4.67 µM) | 2 µg/mL (≈ 2.34 µM) |
| CCC1OC(=O)C(C)C(=O)C(C)C(OC2OC(C)CC(N(C)C)C2O)C(C)(OC)CC(C)C(=O)C(C)C2N(CC3CN(C(=O)c4cccc(C#N)c4)C3)C(=O)OC12C (stereo not shown) [4.06] | >100.00 µg/mL | 0.02 µg/mL (≈ 0.0247 µM) | 12.5 µg/mL (≈ 15.4 µM) | 0.39 µg/mL (≈ 0.481 µM) | 3.12 µg/mL (≈ 3.85 µM) |  |  |  |  |  |
